Experimental findings from US20030055003A1, “Use of copper chelators to inhibit the inactivation of protein C” (priority 2001, published 2003) are described below.

Data set [1] has as its target T1, activated protein C (APC) (Homo sapiens, UniProt P04070).
T1 construct: purchased Sigma (St. Louis, Mo.) P2200
Kind of data set: APC activity assay (Accucolor assay, modified for aqueous environment). The class given is biochemical. Here is the method: Materials. The human albumin N-terminus analogue, d-DAHK, was synthesized by Bowman Research, Ltd (Newport, Wales, U.K.). The assay for APC anticoagulant activity was the Accucolor™ calorimetric assay (Sigma Diagnostics, St. Louis, Mo.). […] Copper content of APC was determined by graphite furnace atomic absorption (Galbraith Laboratories, Knoxville, Tenn.).
APC activity assay. The APC assay, originally designed for plasma samples (Francis et al., Am. J. Clin. Pathol. 87, 619-625 (1987)) was modified for use in a clean, aqueous environment. […] Experiments were performed in a 96-well plate. […] Protein C substrate (2 mg/L) was then added to each well and incubated for ten minutes at 37° C. Concentrated acetic acid was added to each well to stop the reaction and the results were read at 410 nm on a microplate fluorescence reader (Model FL600, Bio-Tek Instruments, Inc., Winooski, Vt.).

Data set [2] is described as follows: Model of the blood brain barrier. The data set is classed as in vitro ADME. An excerpt:
In P1, Xaa1 is most preferably Asp, Xaa2 is most preferably Ala, and Xaa3 is most preferably Lys (see above). Thus, the preferred sequences of P1 are Asp Ala His and Asp Ala His Lys [SEQ ID NO: 1]. Most preferably the sequence of P1 is Asp Ala His Lys [SEQ ID NO: 1]. Asp Ala His is the minimum sequence of the N-terminal metal-binding site of human serum albumin necessary for the high-affinity binding of Cu(lI) and Ni(II), and Lys has been reported to contribute to the binding of these metal ions to this site. […] Other preferred sequences for P, include Thr Leu His (the N-terminal sequence of human a-fetoprotein), Arg Thr His (the N-terminal sequence of human sperm protamin HP2) and HMS HMS His (a synthetic peptide reported to form extremely stable complexes with copper; see Mlynarz et al., Speciation 98: Abstracts, Apr. 21, 1998, http://www.jate.uszeged.hu/spec98/abstr/mlynar.html).

Where “and” joins values, the source holds several entries; their conditions need not be identical. Equal values may be shown once. Where a SMILES comes first, the peptide text is derived from it.

T1 sequence (P04070 212-461 limits assumed): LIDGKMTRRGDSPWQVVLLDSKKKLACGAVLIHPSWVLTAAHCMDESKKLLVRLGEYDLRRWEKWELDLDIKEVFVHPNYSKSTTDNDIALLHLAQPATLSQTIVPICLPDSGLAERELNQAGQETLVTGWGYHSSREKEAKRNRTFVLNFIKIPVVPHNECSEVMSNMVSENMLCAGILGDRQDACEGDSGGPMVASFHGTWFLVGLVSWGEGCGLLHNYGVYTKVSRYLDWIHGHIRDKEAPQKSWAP
T1 sequence (P04070 43-197 limits assumed): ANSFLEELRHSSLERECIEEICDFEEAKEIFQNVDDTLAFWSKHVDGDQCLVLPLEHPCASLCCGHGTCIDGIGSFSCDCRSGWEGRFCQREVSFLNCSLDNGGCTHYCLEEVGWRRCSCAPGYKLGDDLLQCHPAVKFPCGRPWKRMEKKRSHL

Turning to `[Cl][Cu][Cl]` [CuCl2, reference compound], the “overall mean decrease in APC activity compared to baseline” value in data set [1] (10 μM CuCl2, mean of two separate experiments) was 26.0%±11.8. For the same compound, the “decrease in APC activity compared to baseline” value in data set [1] (10 μM CuCl2 with APC 2 mg/L, 30 min 37° C., single experiment, mean±SD, n=3) is 27.9%±15.5 and 24.1%±9.7.
Turning to D-Asp D-Ala D-His D-Lys [d-DAHK], the “increase over baseline APC activity, chelator alone” value in data set [1] (40 μM chelator with APC 2 mg/L, no added copper, 30 min 37° C., mean±SD) is listed as 18.2%±13.0. The “protection of copper-induced inhibition of APC, lower d-DAHK:CuCl2 ratios” value in data set [1] (d-DAHK:CuCl2 ratios below 2:1 (1:4, 1:2, 1:1)) is listed as “no significant protection”. Further, the “increase of APC activity over baseline, d-DAHK:CuCl2 2:1” value in data set [1] (ratio 2:1 d-DAHK:CuCl2, 30 min 37° C.) is given as 12.9%±1.1. In addition, the “increase of APC activity over baseline, d-DAHK:CuCl2 4:1” value in data set [1] (ratio 4:1 d-DAHK:CuCl2, 30 min 37° C.) was 14.8%±12.7.
With `C[C@H](NC(=O)[C@@H](N)CC(=O)O)C(=O)N[C@@H](Cc1c[nH]cn1)C(=O)N[C@@H](CCCCN)C(=O)O` [Asp Ala His Lys] (H-DAHK-OH; N-terminus and C-terminus assumed), the “passage through a model of the blood brain barrier” value in data set [2] is on record as “pass through a model of the blood brain barrier”.
